Assay results taken from PMC9271048, “Probing strigolactone perception mechanisms with rationally designed small-molecule agonists stimulating germination of root parasitic weeds” (Nature Communications, 2022).
Read-outs that look alike come from different tables or passages of the source.

Assays:
ShHTL7 [1] = target: T1, ShHTL7 (Striga hermonthica, UniProt A0A0M3PNA2); experiment: ShHTL7-hydrolysis reaction analysis (HPLC); format: biochemical; settings: 10 μM compound, 30 °C, 30 min; for relative percentage of hydrolysis by ShHTL7, source data average: Supplementary Figs. 11, 20a, 24a
T1 sequence (A0A0M3PNA2 entry or part of it): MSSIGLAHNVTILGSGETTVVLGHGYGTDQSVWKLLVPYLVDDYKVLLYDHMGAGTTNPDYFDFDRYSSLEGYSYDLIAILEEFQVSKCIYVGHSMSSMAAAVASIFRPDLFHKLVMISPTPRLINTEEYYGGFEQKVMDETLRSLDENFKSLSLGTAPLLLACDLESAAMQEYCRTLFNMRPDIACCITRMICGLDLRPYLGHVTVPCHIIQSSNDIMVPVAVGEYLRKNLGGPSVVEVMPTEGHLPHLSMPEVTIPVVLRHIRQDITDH
How it was run: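 Compounds at 10 μM were incubated with 10 μg recombinant ShHTL7 or its mutants in PBS (pH 7.3) at 30 °C for 30 min, then quenched with methanol. The remaining compound was quantified by HPLC, and hydrolysis was expressed relative to a protein-free buffer control (n = 3).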

[2] = tested on: ShHTLs (10 HTL proteins in S. hermonthica); experiment: YLG-based competition assay on HTL proteins of S. hermonthica; format: biochemical, Striga hermonthica; settings: Supplementary Fig. 27
From the text: In P. aegyptiaca, 5 KAI2s have been proposed as the SL receptors for the regulation of seed germination. […] The high sequence similarity may explain the consistency of these compounds in inducing germination in both S. hermonthica and P. aegyptiaca.
The excitation and emission wavelengths of YLG are 480 and 520 nm, respectively. We used a fluorescence spectrophotometer (CARY Eclipse) to detect the fluorescence intensity change of YLG during the enzymatic hydrolysis assay process. All the testing compounds and YLG were dissolved in DMSO and prepared as stock solutions just before use. […] The changes of fluorescence at 520 nm of each well were recorded every 1 min for 30 min. Using the reaction mixture without adding enzyme and tested compounds as the background control. After subtracting the background hydrolysis, a linear fluorescence increase in 8 min was used for further inspection. The IC50 values were determined via fitting relative inhibition percentages with the varying concentrations of compounds in Microsoft Excel.
Supplementary Fig. 27. Binding of compounds 4a, (R)- and (S)-4a, and 4g-i to the HTL proteins in S. hermonthica and KAI2 protein homologs in P. aegyptiaca. In the competitive inhibitory activity assay, YLG (3 µM) was used as the fluorogenic substrate. Error bar indicates SD (n = 3 biologically independent experiments).
(1 picture or pasted object on this page, not shown here)

P. aegyptiaca seeds = experiment: P. aegyptiaca seed germination assay; format: in vivo, Phelipanche aegyptiaca; parameters: P. aegyptiaca germination EC50 values, source data average: unit not given here; P. aegyptiaca seed germination activity, source data average: unit of the concentration uncertain; settings: for P. aegyptiaca seed germination activity, source data average: Supplementary Fig. 9b
How it was run: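 Germination scored at ×20 magnification after one week dark incubation at 25 °C with compound (acetone stock diluted 999/1 in water). Seeds were NaClO-sterilized and conditioned 4 days at 25 °C in the dark beforehand; 1‰ acetone negative, rac-GR24 positive control; triplicate biological repeats.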

ShHTL7 [3] = target: T1, ShHTL7; experiment: Competitive inhibition of ShHTL7 with Yoshimulactone Green (YLG) as substrate; format: biochemical
How it was run: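 YLG hydrolysis by ShHTL7 followed by fluorescence (ex 480/em 520 nm) every 1 min for 30 min; compounds and YLG from fresh DMSO stocks. After subtracting no-enzyme background, the linear 8-min increase was used; IC50 fitted from relative inhibition versus compound concentration.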

[4] = ShHTL2, YLG competition, read-out: IC50, replicate 1
[5] = ShHTL2, YLG competition, read-out: IC50, replicate 2
[6] = ShHTL2, YLG competition, read-out: IC50, replicate 3
[7] = ShHTL2, average of 3 replicates, read-out: IC50, average
[8] = ShHTL3, YLG competition, read-out: IC50, replicate 1
[9] = ShHTL3, YLG competition, read-out: IC50, replicate 2
[10] = ShHTL3, YLG competition, read-out: IC50, replicate 3
[11] = ShHTL3, average of 3 replicates, read-out: IC50, average
[12] = ShHTL4, YLG competition, read-out: IC50, replicate 1
[13] = ShHTL4, YLG competition, read-out: IC50, replicate 2
[14] = ShHTL4, YLG competition, read-out: IC50, replicate 3
[15] = ShHTL4, average of 3 replicates, read-out: IC50, average
[16] = ShHTL5, YLG competition, read-out: IC50, replicate 1
[17] = ShHTL5, YLG competition, read-out: IC50, replicate 2
[18] = ShHTL5, YLG competition, read-out: IC50, replicate 3
[19] = ShHTL5, average of 3 replicates, read-out: IC50, average
[20] = ShHTL6, YLG competition, read-out: IC50, replicate 1
[21] = ShHTL6, YLG competition, read-out: IC50, replicate 2
[22] = ShHTL6, YLG competition, read-out: IC50, replicate 3
[23] = ShHTL6, average of 3 replicates, read-out: IC50, average
[24] = ShHTL8, YLG competition, read-out: IC50, replicate 1
[25] = ShHTL8, YLG competition, read-out: IC50, replicate 2
[26] = ShHTL8, YLG competition, read-out: IC50, replicate 3
[27] = ShHTL8, average of 3 replicates, read-out: IC50, average
[28] = ShHTL9, YLG competition, read-out: IC50, replicate 1
[29] = ShHTL9, YLG competition, read-out: IC50, replicate 2
[30] = ShHTL9, YLG competition, read-out: IC50, replicate 3
[31] = ShHTL9, average of 3 replicates, read-out: IC50, average
[32] = ShHTL10, YLG competition, read-out: IC50, replicate 1
[33] = ShHTL10, YLG competition, read-out: IC50, replicate 2
[34] = ShHTL10, YLG competition, read-out: IC50, replicate 3
[35] = ShHTL10, average of 3 replicates, read-out: IC50, average
[36] = ShHTL11, YLG competition, read-out: IC50, replicate 1
[37] = ShHTL11, YLG competition, read-out: IC50, replicate 2
[38] = ShHTL11, YLG competition, read-out: IC50, replicate 3
[39] = ShHTL11, average of 3 replicates, read-out: IC50, average
[40] = ShHTL7, YLG competition, Supplementary Fig. 27, read-out: IC50, replicate 1
[41] = ShHTL7, YLG competition, Supplementary Fig. 27, read-out: IC50, replicate 2
[42] = ShHTL7, YLG competition, Supplementary Fig. 27, read-out: IC50, replicate 3
[43] = ShHTL7, average of 3 replicates, Supplementary Fig. 27, read-out: IC50, average

## CC1=C[C@@H](OC(=O)N2CCN(C(=O)COc3ccc(Br)cc3C)CC2)OC1=O [(R)-4a]
ShHTL7 [1]
  hydrolysis by ShHTL7: 3.1%
  relative percentage of hydrolysis by ShHTL7, source data average: 3.081%
[2]; [4]
  IC50: 69.7 µM
[2]; [5]
  IC50: 64.8 µM
[2]; [6]
  IC50: 63.8 µM
[2]; [7]
  IC50: 66.1 µM
[2]; [8]
  IC50: 62.1 µM
[2]; [9]
  IC50: 76.7 µM
[2]; [10]
  IC50: 63.2 µM
[2]; [11]
  IC50: 67.3 µM
[2]; [12]
  IC50: 22.9 µM
[2]; [13]
  IC50: 19.8 µM
[2]; [14]
  IC50: 20.3 µM
[2]; [15]
  IC50: 21 µM
[2]; [16]
  IC50: 48.9 µM
[2]; [17]
  IC50: 46.9 µM
[2]; [18]
  IC50: 35.9 µM
[2]; [19]
  IC50: 43.9 µM
[2]; [20]
  IC50: > 100 µM
[2]; [21]
  IC50: > 100 µM
[2]; [22]
  IC50: > 100 µM
[2]; [23]
  IC50: > 100 µM
[2]; [24]
  IC50: 58.4 µM
[2]; [25]
  IC50: 53.3 µM
[2]; [26]
  IC50: 69.9 µM
[2]; [27]
  IC50: 60.5 µM
[2]; [28]
  IC50: 50.2 µM
[2]; [29]
  IC50: 43.9 µM
[2]; [30]
  IC50: 47.8 µM
[2]; [31]
  IC50: 47.3 µM
[2]; [32]
  IC50: 59.5 µM
[2]; [33]
  IC50: 43.4 µM
[2]; [34]
  IC50: 54.6 µM
[2]; [35]
  IC50: 52.5 µM
[2]; [36]
  IC50: > 100 µM
[2]; [37]
  IC50: > 100 µM
[2]; [38]
  IC50: > 100 µM
[2]; [39]
  IC50: > 100 µM
P. aegyptiaca seeds; Phelipanche aegyptiaca, source data of Fig. 2c and Supplementary Fig. 8b, average of 3, read-out: P. aegyptiaca germination EC50 values, source data average (converted)
  EC50: 1270 nM
ShHTL7 [3]; [40]
  IC50: 40.1 µM
ShHTL7 [3]; [41]
  IC50: 33.7 µM
ShHTL7 [3]; [42]
  IC50: 33.7 µM
ShHTL7 [3]; [43]
  IC50: 35.8 µM
ShHTL7 [3]; YLG as substrate, text and Fig. 2, read-out: IC50, competitive ShHTL7 inhibition (YLG assay)
  IC50: 35.8 ± 3.69 µM
ShHTL7 [3]; wild-type ShHTL7, average of 3, source data of Fig. 2a,b, Supplementary Figs. 8a, 9a, 20b, read-out: IC50, competitive ShHTL7 inhibition (YLG), source data average
  IC50: 35.8 µM

## CC1=C[C@H](O/C=C2/C(=O)O[C@@H]3c4ccccc4C[C@H]23)OC1=O (racemic) [rac-GR24, reference compound]
ShHTL7 [1]
  hydrolysis by ShHTL7: 51.9%
  relative percentage of hydrolysis by ShHTL7, source data average: 51.9391%
[2]; [4]
  IC50: 26.2 µM
[2]; [5]
  IC50: 25.2 µM
[2]; [6]
  IC50: 25.5 µM
[2]; [7]
  IC50: 25.7 µM
[2]; [8]
  IC50: 9.4 µM
[2]; [9]
  IC50: 7.11 µM
[2]; [10]
  IC50: 8.7 µM
[2]; [11]
  IC50: 8.4 µM
[2]; [12]
  IC50: 0.239 µM
[2]; [13]
  IC50: 0.239 µM
[2]; [14]
  IC50: 0.28 µM
[2]; [15]
  IC50: 0.253 µM
[2]; [16]
  IC50: 5.89 µM
[2]; [17]
  IC50: 6.85 µM
[2]; [18]
  IC50: 6.74 µM
[2]; [19]
  IC50: 6.49 µM
[2]; [20]
  IC50: 2.28 µM
[2]; [21]
  IC50: 1.87 µM
[2]; [22]
  IC50: 2.23 µM
[2]; [23]
  IC50: 2.13 µM
[2]; [24]
  IC50: 6.15 µM
[2]; [25]
  IC50: 6.78 µM
[2]; [26]
  IC50: 4.51 µM
[2]; [27]
  IC50: 5.81 µM
[2]; [28]
  IC50: 4.91 µM
[2]; [29]
  IC50: 4.06 µM
[2]; [30]
  IC50: 5.17 µM
[2]; [31]
  IC50: 4.71 µM
[2]; [32]
  IC50: 4.93 µM
[2]; [33]
  IC50: 6.56 µM
[2]; [34]
  IC50: 5.51 µM
[2]; [35]
  IC50: 5.67 µM
[2]; [36]
  IC50: 3.27 µM
[2]; [37]
  IC50: 3.14 µM
[2]; [38]
  IC50: 3.16 µM
[2]; [39]
  IC50: 3.19 µM
P. aegyptiaca seeds; 10 μM, Fig. 1d source data, average of 3
  germination of P. aegyptiaca seeds, source data average: 96.5229%
P. aegyptiaca seeds; 0.1 (unit uncertain) as printed
  P. aegyptiaca seed germination activity, source data average: 90.7731%
P. aegyptiaca seeds; 1 (unit uncertain) as printed
  P. aegyptiaca seed germination activity, source data average: 95.3227%
P. aegyptiaca seeds; 10 (unit uncertain) as printed
  P. aegyptiaca seed germination activity, source data average: 96.5229%
P. aegyptiaca seeds; Supplementary Table 1, compounds tested at 10 μM, means ± SD, n = 3
  P. aegyptiaca germination(%): 96.4%
P. aegyptiaca seeds; in vivo, read-out: EC50, P. aegyptiaca seed germination
  EC50: 0.0485 nM
P. aegyptiaca seeds; source data of Fig. 2c and Supplementary Fig. 8b, average of 3
  P. aegyptiaca germination EC50 values, source data average: 10.3597
ShHTL7 [3]; [40]
  IC50: 0.633 µM
ShHTL7 [3]; [41]
  IC50: 0.842 µM
ShHTL7 [3]; [42]
  IC50: 0.614 µM
ShHTL7 [3]; [43]
  IC50: 0.696 µM
ShHTL7 [3]; YLG used as the substrate, means ± SD, n = 3, read-out: IC50 (Supplementary Table 1)
  IC50: 0.73 ± 0.11 µM
